Where a name gives a salt, the structure may show the parent alone.
Target: T1, human TRPV4 (Homo sapiens, UniProt Q9HBA0)
T1 construct: expressed in transfected cells
Assay: Fluorometric cell-based Ca2+ flux assay, HEK-293 cells stably overexpressing human TRPV4
Details: HEK-293 stably overexpressing human TRPV4; agonist GSK1016790A 30 nM
Procedure, shortened: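 HEK-293 cells stably overexpressing human TRPV4, Fluo 4-loaded, pre-incubated 30 min at 37° C with compound, then stimulated with 30 nM GSK1016790A (final). Max ΔF/s over 1 min, media-corrected, expressed relative to no-antagonist control; IC50 from ≥8 concentrations, ≥3 replicates.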

T1 sequence (Q9HBA0 whole entry): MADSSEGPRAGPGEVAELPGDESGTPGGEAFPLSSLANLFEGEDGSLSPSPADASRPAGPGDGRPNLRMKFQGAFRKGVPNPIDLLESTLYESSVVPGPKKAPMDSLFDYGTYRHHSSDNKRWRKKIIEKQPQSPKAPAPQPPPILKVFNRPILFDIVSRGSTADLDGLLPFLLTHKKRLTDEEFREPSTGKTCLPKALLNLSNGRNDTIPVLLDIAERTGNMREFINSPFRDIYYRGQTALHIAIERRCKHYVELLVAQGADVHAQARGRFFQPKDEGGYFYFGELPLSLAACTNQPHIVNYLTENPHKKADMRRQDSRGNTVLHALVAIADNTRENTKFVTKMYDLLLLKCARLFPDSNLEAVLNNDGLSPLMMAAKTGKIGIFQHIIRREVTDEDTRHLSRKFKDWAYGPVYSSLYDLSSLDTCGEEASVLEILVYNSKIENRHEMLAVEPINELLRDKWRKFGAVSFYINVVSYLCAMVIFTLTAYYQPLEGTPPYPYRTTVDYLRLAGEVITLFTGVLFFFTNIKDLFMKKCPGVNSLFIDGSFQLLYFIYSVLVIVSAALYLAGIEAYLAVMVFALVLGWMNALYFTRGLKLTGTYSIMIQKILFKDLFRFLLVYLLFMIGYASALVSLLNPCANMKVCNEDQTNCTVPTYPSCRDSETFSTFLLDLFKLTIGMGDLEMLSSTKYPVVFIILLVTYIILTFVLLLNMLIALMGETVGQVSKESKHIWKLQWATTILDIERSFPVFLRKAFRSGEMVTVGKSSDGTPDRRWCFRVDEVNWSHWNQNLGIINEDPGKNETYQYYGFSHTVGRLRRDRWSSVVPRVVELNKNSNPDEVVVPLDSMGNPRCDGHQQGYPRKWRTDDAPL

Row | Compound | IC50 [nM]
1 | N#Cc1ccc(OCC2(C(=O)O)CN(S(=O)(=O)c3ccc(Cl)cc3Cl)C2)cc1 [Compound 2, 3-((4-Cyanophenoxy)methyl)-1-((2,4-dichlorophenyl)sulfonyl)azetidine-3-carboxylic acid] | ≥ 50000
2 | CC(=O)NCC1(COc2ccc(C#N)c(F)c2)CN(S(=O)(=O)c2ccc(Cl)cc2Cl)C1 [Compound 45, N-((3-((4-Cyano-3-fluorophenoxy)methyl)-1-((2,4-dichlorophenyl)sulfonyl)azetidin-3-yl)methyl)acetamide] | 3000
3 | N#Cc1ccc(OCC2(CO)CN(S(=O)(=O)c3c(Cl)cccc3Cl)C2)cc1F [Compound 75, 4-((1-((2,6-Dichlorophenyl)sulfonyl)-3-(hydroxymethyl)azetidin-3-yl)methoxy)-2-fluorobenzonitrile] | > 1300
4 | CN(C)C1(COc2ccc(C#N)c(F)c2)CN(S(=O)(=O)c2ccc(Cl)cc2Cl)C1 [Compound 54, 4-((1-((2,4-Dichlorophenyl)sulfonyl)-3-(dimethylamino)azetidin-3-yl)methoxy)-2-fluorobenzonitrile] | 1240
5 | N#Cc1ccc(OCC2(CO)CN(S(=O)(=O)c3ccc(C(F)(F)F)cc3Cl)C2)cc1F [Compound 59, 4-((1-((2-Chloro-4-(trifluoromethyl)phenyl)sulfonyl)-3-(hydroxymethyl)azetidin-3-yl)methoxy)-2-fluorobenzonitrile] | 481
6 | N#Cc1ccc(OCC2(NC(=O)CO)CN(S(=O)(=O)c3ccc(Cl)cc3Cl)C2)cc1F [Compound 56, N-(3-((4-Cyano-3-fluorophenoxy)methyl)-1-((2,4-dichlorophenyl)sulfonyl)azetidin-3-yl)-2-hydroxyacetamide] | 100
7 | NC(=O)c1ccc(OCC2(CO)CN(S(=O)(=O)c3ccc(Cl)cc3Cl)C2)cc1 [Compound 93, 4-((1-((2,4-Dichlorophenyl)sulfonyl)-3-(hydroxymethyl)azetidin-3-yl)methoxy)benzamide] | ~5000
8 | N#Cc1ccc(OCC2(CO)CN(S(=O)(=O)c3ccccc3)C2)cc1F [Compound 72, 2-Fluoro-4-((3-(hydroxymethyl)-1-(phenylsulfonyl)azetidin-3-yl)methoxy)benzonitrile] | 5000
9 | N#Cc1ccc(OCC2(CO)CN(S(=O)(=O)c3ccc(Cl)cc3Cl)C2)c(Cl)c1 [Compound 88, 3-Chloro-4-((1-((2,4-dichlorophenyl)sulfonyl)-3-(hydroxymethyl)azetidin-3-yl)methoxy)benzonitrile] | 500
10 | COC(=O)c1ccc(S(=O)(=O)N2CC(CO)(COc3ccc(C#N)c(F)c3)C2)cc1 [Compound 63, Methyl 4-((3-((4-cyano-3-fluorophenoxy)methyl)-3-(hydroxymethyl)azetidin-1-yl)sulfonyl)benzoate] | 5000
11 | CC(=O)OCC1(COc2ccc(C#N)c(F)c2)CN(S(=O)(=O)c2ccc(Cl)cc2Cl)C1 [Compound 12, (3-((4-Cyano-3-fluorophenoxy)methyl)-1-((2,4-dichlorophenyl)sulfonyl)azetidin-3-yl)methyl acetate] | 303
12 | N#Cc1ccc(OCC2(CNC(=O)CO)CN(S(=O)(=O)c3ccc(Cl)cc3Cl)C2)cc1F [Compound 47, N-((3-((4-Cyano-3-fluorophenoxy)methyl)-1-((2,4-dichlorophenyl)sulfonyl)azetidin-3-yl)methyl)-2-hydroxyacetamide] | 348
13 | COc1cc(C#N)c(F)cc1OCC1(CO)CN(S(=O)(=O)c2ccc(C)cc2C#N)C1 [Compound 110, 4-((1-((2-Cyano-4-methylphenyl)sulfonyl)-3-(hydroxymethyl)azetidin-3-yl)methoxy)-2-fluoro-5-methoxybenzonitrile] | 241
14 | Cc1nc(C)c(S(=O)(=O)N2CC(CO)(COc3ccc(C#N)c(F)c3)C2)s1 [Compound 65, 4-((1-((2,4-Dimethylthiazol-5-yl)sulfonyl)-3-(hydroxymethyl)azetidin-3-yl)methoxy)-2-fluorobenzonitrile] | 5000
15 | COc1cc(C#N)c(F)cc1OCC1(CO)CN(S(=O)(=O)c2ccc(Cl)cc2Cl)C1 [Compound 108, 4-((1-((2,4-Dichlorophenyl)sulfonyl)-3-(hydroxymethyl)azetidin-3-yl)methoxy)-2-fluoro-5-methoxybenzonitrile] | 528

The next compounds have a lower IC50 than those just listed; values first:

Row | IC50 [nM] | Compound
16 | 4.9 | N#Cc1ccc(OCC2(CO)CN(S(=O)(=O)c3ccccc3C#N)C2)cc1F [Compound 85, 4-((1-((2-Cyanophenyl)sulfonyl)-3-(hydroxymethyl)azetidin-3-yl)methoxy)-2-fluorobenzonitrile]
17 | 53 | N#Cc1ccc(OCC2(NS(=O)(=O)CCN)CN(S(=O)(=O)c3ccc(Cl)cc3Cl)C2)cc1F [Compound 57, 2-Amino-N-(3-((4-cyano-3-fluorophenoxy)methyl)-1-((2,4-dichlorophenyl)sulfonyl)azetidin-3-yl)ethane-1-sulfonamide hydrochloride]
18 | 47.6 | N#Cc1ccc(OCC2(CNC3COC3)CN(S(=O)(=O)c3ccccc3C#N)C2)cc1F [Compound 111, 4-((1-((2-Cyanophenyl)sulfonyl)-3-((oxetan-3-ylamino)methyl)azetidin-3-yl)methoxy)-2-fluorobenzonitrile]
19 | 54 | N#Cc1ccc(S(=O)(=O)N2CC(CO)(COc3ccc(C#N)c(F)c3)C2)c(Cl)c1 [Compound 60, 4-((1-((2-Chloro-4-cyanophenyl)sulfonyl)-3-(hydroxymethyl)azetidin-3-yl)methoxy)-2-fluorobenzonitrile]
20 | 29.3 | N#Cc1ccc(OCC2(CO)CN(S(=O)(=O)c3ccc(F)cc3C#N)C2)cc1F [Compound 104, 4-((1-((2-Cyano-4-fluorophenyl)sulfonyl)-3-(hydroxymethyl)azetidin-3-yl)methoxy)-2-fluorobenzonitrile]
21 | 1 | N#Cc1ccc(OCC2(CNCC3COC3)CN(S(=O)(=O)c3ccc(Cl)cc3Cl)C2)cc1F [Compound 27, 4-((1-((2,4-Dichlorophenyl)sulfonyl)-3-(((oxetan-3-ylmethyl)amino)methyl)azetidin-3-yl)methoxy)-2-fluorobenzonitrile]
22 | 0.79 | N#Cc1ccc(OCC2(CN[C@H]3C[C@H](O)C3)CN(S(=O)(=O)c3ccccc3C#N)C2)cc1F [Compound 113, 4-((1-((2-Cyanophenyl)sulfonyl)-3-(((trans-3-hydroxycyclobutyl)amino)methyl)azetidin-3-yl)methoxy)-2-fluorobenzonitrile]
23 | 0.7 | CC(O)CCNCC1(COc2ccc(C#N)c(F)c2)CN(S(=O)(=O)c2ccc(Cl)cc2Cl)C1 (stereo not shown) [Compound 35, 4-((1-((2,4-dichlorophenyl)sulfonyl)-3-(((3-hydroxybutyl)amino)methyl)azetidin-3-yl)methoxy)-2-fluorobenzonitrile hydrochloride]
24 | 22.3 | N#Cc1ccc(OCC2(CO)CN(S(=O)(=O)c3ccc(C(F)(F)F)cc3C#N)C2)cc1F [Compound 86, 4-((1-((2-Cyano-4-(trifluoromethyl)phenyl)sulfonyl)-3-(hydroxymethyl)azetidin-3-yl)methoxy)-2-fluorobenzonitrile]
25 | 80 | N#Cc1ccc(OCC2(CO)CN(S(=O)(=O)c3ccc(OC(F)(F)F)cc3C#N)C2)cc1F [Compound 107, 4-((1-((2-Cyano-4-trifluoromethoxyphenyl)sulfonyl)-3-(hydroxymethyl)azetidin-3-yl)methoxy)-2-fluorobenzonitrile]
26 | 0.9 | CC(O)CNCC1(COc2ccc(C#N)c(F)c2)CN(S(=O)(=O)c2ccc(Cl)cc2Cl)C1 (stereo not shown) [Compound 24, 4-((1-((2,4-Dichlorophenyl)sulfonyl)-3-(((2-hydroxypropyl)amino)methyl)azetidin-3-yl)methoxy)-2-fluorobenzonitrile hydrochloride]
27 | 8.7 | N#Cc1ccc(OCC2(CNC[C@@H]3CCCO3)CN(S(=O)(=O)c3ccc(Cl)cc3Cl)C2)cc1F [Compound 28, (S)-4-((1-((2,4-dichlorophenyl)sulfonyl)-3-((((tetrahydrofuran-2-yl)methyl)amino)methyl)azetidin-3-yl)methoxy)-2-fluorobenzonitrile hydrochloride]
28 | 5 | N#Cc1ccc(OCC2(CO)CN(S(=O)(=O)c3ccc(Cl)cc3C#N)C2)cc1F [Compound 81, 4-((1-((4-Chloro-2-cyanophenyl)sulfonyl)-3-(hydroxymethyl)azetidin-3-yl)methoxy)-2-fluorobenzonitrile]
29 | 88 | CC(=O)NC1(COc2ccc(C#N)c(F)c2)CN(S(=O)(=O)c2ccc(Cl)cc2Cl)C1 [Compound 53, N-(3-((4-Cyano-3-fluorophenoxy)methyl)-1-((2,4-dichlorophenyl)sulfonyl)azetidin-3-yl)acetamide]
30 | 21 | N#Cc1ccc(OCC2(COS(=O)(=O)CCN)CN(S(=O)(=O)c3ccc(Cl)cc3Cl)C2)cc1F [Compound 15, (3-((4-Cyano-3-fluorophenoxy)methyl)-1-((2,4-dichlorophenyl)sulfonyl)azetidin-3-yl)methyl 2-aminoethane-1-sulfonate trifluoroacetate salt]
31 | 67.2 | COc1cc(C#N)ccc1OCC1(CO)CN(S(=O)(=O)c2ccc(Cl)cc2Cl)C1 [Compound 98, 4-((1-((2,4-Dichlorophenyl)sulfonyl)-3-(hydroxymethyl)azetidin-3-yl)methoxy)-3-methoxybenzonitrile]
32 | 62 | COCC1(COc2ccc(C#N)c(F)c2)CN(S(=O)(=O)c2ccc(Cl)cc2Cl)C1 [Compound 13, 4-((1-((2,4-Dichlorophenyl)sulfonyl)-3-(methoxymethyl)azetidin-3-yl)methoxy)-fluorobenzonitrile]
33 | 10 | N#CCCNCC1(COc2ccc(C#N)c(F)c2)CN(S(=O)(=O)c2ccc(Cl)cc2Cl)C1 [Compound 36, 4-((3-(((2-Cyanoethyl)amino)methyl)-1-((2,4-dichlorophenyl)sulfonyl)azetidin-3-yl)methoxy)-2-fluorobenzonitrile]
34 | 6.45 | CCOC(=O)CCNCC1(COc2ccc(C#N)c(F)c2)CN(S(=O)(=O)c2ccccc2C#N)C1 [Compound 114, Ethyl 3-(((3-((4-cyano-3-fluorophenoxy)methyl)-1-((2-cyanophenyl)sulfonyl)azetidin-3-yl)methyl)amino)propanoate]
